What was measured:
Format in all cases: in vivo
Echinochloa crus-galli [1] = test: Test Example 1: herbicidal effect test by treatment of rice paddy soil (immediately after seeding); settings: 120 g/10a active ingredient, dry weight vs untreated area, 14 days after treatment
Outline: (§1)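 Values are herbicidal rates (%) derived from average plant dry weight in treated versus untreated pots 14 days after treatment, run in duplicate. Treatment was a water-diluted emulsion dropped into flooded paddy soil right after sowing, at 120 g active ingredient per 10 ares.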

Scirpus juncoides [2] = test: as above; settings: 120 g/10a active ingredient, dry weight vs untreated area, 14 days after treatment
Outline: as §1

[3] = system: broad leaf weeds (Lindernia pyxidaria and Monochoria vaginalis); test: as above; settings: 120 g/10a active ingredient, dry weight vs untreated area, 14 days after treatment
Outline: as §1

Echinochloa crus-galli [4] = test: Test Example 2: herbicidal effect test by treatment during growing period in paddy rice cultivation (seven days after seeding); settings: 120 g/10a active ingredient, assessed 14 days after treatment, dry weight vs untreated area
Outline: (§2)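 Seeds sown 0–1 cm deep in puddled, fertilised paddy soil with about 3 cm standing water in a glass greenhouse. Diluted emulsion dropped into the water seven days after seeding at 120 g active ingredient per 10 ares. Herbicidal rate (%) from mean dry weight vs untreated, duplicate, 14 days after treatment.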

Scirpus juncoides [5] = test: as above; settings: 120 g/10a active ingredient, assessed 14 days after treatment, dry weight vs untreated area
Outline: as §2

[6] = system: broad leaf weeds (Lindernia pyxidaria and Monochoria vaginalis); test: as above; settings: 120 g/10a active ingredient, assessed 14 days after treatment, dry weight vs untreated area
Outline: as §2

Amaranthus viridis [7] = test: Test Example 3: herbicidal effect test by treatment of dry field farming soil (one day after seeding); settings: 120 g/10a active ingredient, evaluated 14 days after treatment
Outline: (§3)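 Alluvial dry-field soil in pots, top 1 cm mixed with 20 seeds per weed species. One day after seeding, the water-diluted emulsion was sprayed onto the soil surface at 100 L per 10 ares (120 g active ingredient per 10 ares). Duplicate pots; herbicidal rate (%) from plant dry weight versus untreated, 14 days after treatment.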

Chenopodium album [8] = test: as above; settings: 120 g/10a active ingredient, evaluated 14 days after treatment
Outline: as §3

Echinochloa crus-galli [9] = test: as above; settings: 120 g/10a active ingredient, evaluated 14 days after treatment
Outline: as §3

southern crabgrass [10] = test: as above; settings: 120 g/10a active ingredient, evaluated 14 days after treatment
Outline: as §3

Amaranthus viridis [11] = test: Test Example 4: herbicidal effect test by treatment of leave and stem in dry field farming (seven days after seeding); settings: 120 g/10a active ingredient; emulsion sprayed seven days after seeding; evaluated 14 days after treatment
Outline: (§4)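 Duplicate pots were scored 14 days post-spray by dry weight, herbicidal rate = {1 − treated/untreated average dry weight} × 100. The water-diluted emulsion, equivalent to 120 g active ingredient per 10 ares in 100 L, was applied seven days after sowing 20 seeds each into the upper 1 cm of alluvial soil.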

Chenopodium album [12] = test: as above; settings: 120 g/10a active ingredient; emulsion sprayed seven days after seeding; evaluated 14 days after treatment
Outline: as §4

Echinochloa crus-galli [13] = test: as above; settings: 120 g/10a active ingredient; emulsion sprayed seven days after seeding; evaluated 14 days after treatment
Outline: as §4

southern crabgrass [14] = test: as above; settings: 120 g/10a active ingredient; emulsion sprayed seven days after seeding; evaluated 14 days after treatment
Outline: as §4

## CCC(c1ccccc1)n1oc(=O)c(Cc2ccccc2NS(=O)(=O)C(F)(F)F)c1C (centres unmarked) [Compound 1-211]
Echinochloa crus-galli [1]
  Herbicidal rate (%) Echinochloa crus-galli: 90%
Scirpus juncoides [2]
  Herbicidal rate (%) Scirpus juncoides: 90%
[3]
  Herbicidal rate (%) Lindernia pyxidaria: 90%
  Herbicidal rate (%) Monochoria vaginalis: 90%
Echinochloa crus-galli [4]
  Herbicidal rate (%) Echinochloa crus-galli: 90%
Scirpus juncoides [5]
  Herbicidal rate (%) Scirpus juncoides: 90%
[6]
  Herbicidal rate (%) Lindernia pyxidaria: 60%
  Herbicidal rate (%) Monochoria vaginalis: 80%
Amaranthus viridis [7]
  herbicidal rate, Amaranthus viridis: 0%
Chenopodium album [8]
  herbicidal rate, Chenopodium album: 0%
Echinochloa crus-galli [9]
  herbicidal rate, Echinochloa crus-galli: 90%
Southern crabgrass [10]
  herbicidal rate, southern crabgrass: 90%
Amaranthus viridis [11]
  herbicidal effect (herbicidal rate), Amaranthus viridis: 40%
Chenopodium album [12]
  herbicidal effect (herbicidal rate), Chenopodium album: 50%
Echinochloa crus-galli [13]
  herbicidal effect (herbicidal rate), Echinochloa crus-galli: 90%
Southern crabgrass [14]
  herbicidal effect (herbicidal rate), southern crabgrass: 60%

## CCOC(=O)N(c1ccccc1Cc1c(C)n(C(C)CC)oc1=O)S(=O)(=O)C(F)(F)F (centres unmarked) [Compound 1-605]
Echinochloa crus-galli [1]
  Herbicidal rate (%) Echinochloa crus-galli: 90%
Scirpus juncoides [2]
  Herbicidal rate (%) Scirpus juncoides: 90%
[3]
  Herbicidal rate (%) Lindernia pyxidaria: 90%
  Herbicidal rate (%) Monochoria vaginalis: 90%
Echinochloa crus-galli [4]
  Herbicidal rate (%) Echinochloa crus-galli: 90%
Scirpus juncoides [5]
  Herbicidal rate (%) Scirpus juncoides: 90%
[6]
  Herbicidal rate (%) Lindernia pyxidaria: 90%
  Herbicidal rate (%) Monochoria vaginalis: 90%
Amaranthus viridis [7]
  herbicidal rate, Amaranthus viridis: 90%
Chenopodium album [8]
  herbicidal rate, Chenopodium album: 90%
Echinochloa crus-galli [9]
  herbicidal rate, Echinochloa crus-galli: 90%
Southern crabgrass [10]
  herbicidal rate, southern crabgrass: 90%
Amaranthus viridis [11]
  herbicidal effect (herbicidal rate), Amaranthus viridis: 40%
Chenopodium album [12]
  herbicidal effect (herbicidal rate), Chenopodium album: 40%
Echinochloa crus-galli [13]
  herbicidal effect (herbicidal rate), Echinochloa crus-galli: 90%
Southern crabgrass [14]
  herbicidal effect (herbicidal rate), southern crabgrass: 90%

## CCC(C)Cn1oc(=O)c(Cc2ccccc2N(C(=O)OC)S(=O)(=O)C(F)(F)F)c1C (centres unmarked) [Compound 1-583]
Echinochloa crus-galli [1]
  Herbicidal rate (%) Echinochloa crus-galli: 100%
Scirpus juncoides [2]
  Herbicidal rate (%) Scirpus juncoides: 90%
[3]
  Herbicidal rate (%) Lindernia pyxidaria: 90%
  Herbicidal rate (%) Monochoria vaginalis: 90%
Echinochloa crus-galli [4]
  Herbicidal rate (%) Echinochloa crus-galli: 100%
Scirpus juncoides [5]
  Herbicidal rate (%) Scirpus juncoides: 90%
[6]
  Herbicidal rate (%) Lindernia pyxidaria: 80%
  Herbicidal rate (%) Monochoria vaginalis: 90%
Amaranthus viridis [7]
  herbicidal rate, Amaranthus viridis: 60%
Chenopodium album [8]
  herbicidal rate, Chenopodium album: 50%
Echinochloa crus-galli [9]
  herbicidal rate, Echinochloa crus-galli: 100%
Southern crabgrass [10]
  herbicidal rate, southern crabgrass: 90%
Amaranthus viridis [11]
  herbicidal effect (herbicidal rate), Amaranthus viridis: 50%
Chenopodium album [12]
  herbicidal effect (herbicidal rate), Chenopodium album: 50%
Echinochloa crus-galli [13]
  herbicidal effect (herbicidal rate), Echinochloa crus-galli: 80%
Southern crabgrass [14]
  herbicidal effect (herbicidal rate), southern crabgrass: 60%

## CCCC(c1ccccc1)n1oc(=O)c(Cc2ccccc2NS(=O)(=O)C(F)(F)F)c1C (centres unmarked) [Compound 1-212]
Echinochloa crus-galli [1]
  Herbicidal rate (%) Echinochloa crus-galli: 90%
Scirpus juncoides [2]
  Herbicidal rate (%) Scirpus juncoides: 90%
[3]
  Herbicidal rate (%) Lindernia pyxidaria: 90%
  Herbicidal rate (%) Monochoria vaginalis: 80%
Echinochloa crus-galli [4]
  Herbicidal rate (%) Echinochloa crus-galli: 90%
Scirpus juncoides [5]
  Herbicidal rate (%) Scirpus juncoides: 90%
[6]
  Herbicidal rate (%) Lindernia pyxidaria: 70%
  Herbicidal rate (%) Monochoria vaginalis: 90%
Amaranthus viridis [7]
  herbicidal rate, Amaranthus viridis: 0%
Chenopodium album [8]
  herbicidal rate, Chenopodium album: 0%
Echinochloa crus-galli [9]
  herbicidal rate, Echinochloa crus-galli: 90%
Southern crabgrass [10]
  herbicidal rate, southern crabgrass: 90%
Amaranthus viridis [11]
  herbicidal effect (herbicidal rate), Amaranthus viridis: 80%
Chenopodium album [12]
  herbicidal effect (herbicidal rate), Chenopodium album: 60%
Echinochloa crus-galli [13]
  herbicidal effect (herbicidal rate), Echinochloa crus-galli: 90%
Southern crabgrass [14]
  herbicidal effect (herbicidal rate), southern crabgrass: 90%

## Cc1c(Cc2ccccc2N(C(=O)OCC(C)C)S(=O)(=O)C(F)(F)F)c(=O)on1C(C)c1ccccc1 (centres unmarked) [Compound 1-678]
Echinochloa crus-galli [1]
  Herbicidal rate (%) Echinochloa crus-galli: 90%
Scirpus juncoides [2]
  Herbicidal rate (%) Scirpus juncoides: 90%
[3]
  Herbicidal rate (%) Lindernia pyxidaria: 90%
  Herbicidal rate (%) Monochoria vaginalis: 90%
Echinochloa crus-galli [4]
  Herbicidal rate (%) Echinochloa crus-galli: 90%
Scirpus juncoides [5]
  Herbicidal rate (%) Scirpus juncoides: 90%
[6]
  Herbicidal rate (%) Lindernia pyxidaria: 90%
  Herbicidal rate (%) Monochoria vaginalis: 90%
Amaranthus viridis [7]
  herbicidal rate, Amaranthus viridis: 90%
Chenopodium album [8]
  herbicidal rate, Chenopodium album: 90%
Echinochloa crus-galli [9]
  herbicidal rate, Echinochloa crus-galli: 90%
Southern crabgrass [10]
  herbicidal rate, southern crabgrass: 90%
Amaranthus viridis [11]
  herbicidal effect (herbicidal rate), Amaranthus viridis: 40%
Chenopodium album [12]
  herbicidal effect (herbicidal rate), Chenopodium album: 40%
Echinochloa crus-galli [13]
  herbicidal effect (herbicidal rate), Echinochloa crus-galli: 90%
Southern crabgrass [14]
  herbicidal effect (herbicidal rate), southern crabgrass: 90%

## Cc1c(Cc2ccccc2N(C(=O)OCc2ccccc2)S(=O)(=O)C(F)(F)F)c(=O)on1CC(C)C [Compound 1-785]
Echinochloa crus-galli [1]
  Herbicidal rate (%) Echinochloa crus-galli: 90%
Scirpus juncoides [2]
  Herbicidal rate (%) Scirpus juncoides: 90%
[3]
  Herbicidal rate (%) Lindernia pyxidaria: 90%
  Herbicidal rate (%) Monochoria vaginalis: 90%
Echinochloa crus-galli [4]
  Herbicidal rate (%) Echinochloa crus-galli: 90%
Scirpus juncoides [5]
  Herbicidal rate (%) Scirpus juncoides: 90%
[6]
  Herbicidal rate (%) Lindernia pyxidaria: 90%
  Herbicidal rate (%) Monochoria vaginalis: 90%
Amaranthus viridis [7]
  herbicidal rate, Amaranthus viridis: 90%
Chenopodium album [8]
  herbicidal rate, Chenopodium album: 90%
Echinochloa crus-galli [9]
  herbicidal rate, Echinochloa crus-galli: 90%
Southern crabgrass [10]
  herbicidal rate, southern crabgrass: 90%
Amaranthus viridis [11]
  herbicidal effect (herbicidal rate), Amaranthus viridis: 40%
Chenopodium album [12]
  herbicidal effect (herbicidal rate), Chenopodium album: 40%
Echinochloa crus-galli [13]
  herbicidal effect (herbicidal rate), Echinochloa crus-galli: 90%
Southern crabgrass [14]
  herbicidal effect (herbicidal rate), southern crabgrass: 90%

## Cc1c(Cc2ccccc2N(C(=O)C(C)C)S(=O)(=O)C(F)(F)F)c(=O)on1CC(C)(C)C [Compound 1-333]
Echinochloa crus-galli [1]
  Herbicidal rate (%) Echinochloa crus-galli: 90%
Scirpus juncoides [2]
  Herbicidal rate (%) Scirpus juncoides: 90%
[3]
  Herbicidal rate (%) Lindernia pyxidaria: 90%
  Herbicidal rate (%) Monochoria vaginalis: 90%
Echinochloa crus-galli [4]
  Herbicidal rate (%) Echinochloa crus-galli: 90%
Scirpus juncoides [5]
  Herbicidal rate (%) Scirpus juncoides: 90%
[6]
  Herbicidal rate (%) Lindernia pyxidaria: 90%
  Herbicidal rate (%) Monochoria vaginalis: 90%
Amaranthus viridis [7]
  herbicidal rate, Amaranthus viridis: 90%
Chenopodium album [8]
  herbicidal rate, Chenopodium album: 90%
Echinochloa crus-galli [9]
  herbicidal rate, Echinochloa crus-galli: 90%
Southern crabgrass [10]
  herbicidal rate, southern crabgrass: 90%
Amaranthus viridis [11]
  herbicidal effect (herbicidal rate), Amaranthus viridis: 40%
Chenopodium album [12]
  herbicidal effect (herbicidal rate), Chenopodium album: 40%
Echinochloa crus-galli [13]
  herbicidal effect (herbicidal rate), Echinochloa crus-galli: 90%
Southern crabgrass [14]
  herbicidal effect (herbicidal rate), southern crabgrass: 90%

## COCCn1oc(=O)c(Cc2ccccc2NS(=O)(=O)C(F)(F)F)c1C [Compound 1-148]
Echinochloa crus-galli [1]
  Herbicidal rate (%) Echinochloa crus-galli: 90%
Scirpus juncoides [2]
  Herbicidal rate (%) Scirpus juncoides: 100%
[3]
  Herbicidal rate (%) Lindernia pyxidaria: 100%
  Herbicidal rate (%) Monochoria vaginalis: 90%
Echinochloa crus-galli [4]
  Herbicidal rate (%) Echinochloa crus-galli: 90%
Scirpus juncoides [5]
  Herbicidal rate (%) Scirpus juncoides: 90%
[6]
  Herbicidal rate (%) Lindernia pyxidaria: 60%
  Herbicidal rate (%) Monochoria vaginalis: 80%
Amaranthus viridis [7]
  herbicidal rate, Amaranthus viridis: 80%
Chenopodium album [8]
  herbicidal rate, Chenopodium album: 80%
Echinochloa crus-galli [9]
  herbicidal rate, Echinochloa crus-galli: 100%
Southern crabgrass [10]
  herbicidal rate, southern crabgrass: 100%
Amaranthus viridis [11]
  herbicidal effect (herbicidal rate), Amaranthus viridis: 40%
Chenopodium album [12]
  herbicidal effect (herbicidal rate), Chenopodium album: 40%
Echinochloa crus-galli [13]
  herbicidal effect (herbicidal rate), Echinochloa crus-galli: 90%
Southern crabgrass [14]
  herbicidal effect (herbicidal rate), southern crabgrass: 80%
